Test results: patent US20260049077A1, “Neurotrophic Receptor Tyrosine Kinase (NTRK) Inhibitors and Methods Using Same” (Baylor College of Medicine, priority 2022, published 2026)
Where “and” joins values, the source holds several entries; their conditions need not be identical. Identical values can stand only once. Entries after “also recorded” stand apart in the source; their conditions may differ. Like-named read-outs stand apart in the source and are kept apart here.

How the values were obtained:
[1] = Plasma ALT and AST in mice after a high dose (50 mg/kg); assay type: in vivo, mouse
NTRK1 [2] = molecular target: T1, NTRK1 (Homo sapiens (Human), UniProt P04629); assay: NTRK1 inhibition (IC50); settings: read-out: NTRK1 IC50
T1 sequence (P04629 33-796): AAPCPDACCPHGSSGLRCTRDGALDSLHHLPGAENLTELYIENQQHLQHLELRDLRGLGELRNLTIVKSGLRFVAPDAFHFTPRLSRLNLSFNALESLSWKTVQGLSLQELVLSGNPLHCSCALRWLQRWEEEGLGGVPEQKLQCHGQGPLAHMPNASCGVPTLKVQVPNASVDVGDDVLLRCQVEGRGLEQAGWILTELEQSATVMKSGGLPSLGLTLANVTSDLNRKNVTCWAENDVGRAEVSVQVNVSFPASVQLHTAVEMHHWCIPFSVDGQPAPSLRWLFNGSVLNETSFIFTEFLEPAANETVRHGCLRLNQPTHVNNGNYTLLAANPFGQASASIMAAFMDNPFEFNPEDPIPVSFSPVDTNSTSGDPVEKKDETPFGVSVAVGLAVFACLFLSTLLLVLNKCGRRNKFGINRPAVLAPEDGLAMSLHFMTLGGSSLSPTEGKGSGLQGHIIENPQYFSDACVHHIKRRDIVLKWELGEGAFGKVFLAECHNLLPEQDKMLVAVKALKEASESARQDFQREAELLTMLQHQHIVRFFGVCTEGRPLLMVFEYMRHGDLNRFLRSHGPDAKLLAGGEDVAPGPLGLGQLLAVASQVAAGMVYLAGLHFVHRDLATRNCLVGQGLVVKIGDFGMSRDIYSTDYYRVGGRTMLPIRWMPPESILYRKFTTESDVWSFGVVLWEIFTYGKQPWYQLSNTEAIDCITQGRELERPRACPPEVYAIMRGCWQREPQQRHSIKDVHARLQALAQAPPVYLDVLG

NTRK2 [3] = molecular target: T2, NTRK2 (Homo sapiens (Human), UniProt Q16620); assay: NTRK2 inhibition (IC50); assay type: biochemical
T2 sequence (Q16620 32-822): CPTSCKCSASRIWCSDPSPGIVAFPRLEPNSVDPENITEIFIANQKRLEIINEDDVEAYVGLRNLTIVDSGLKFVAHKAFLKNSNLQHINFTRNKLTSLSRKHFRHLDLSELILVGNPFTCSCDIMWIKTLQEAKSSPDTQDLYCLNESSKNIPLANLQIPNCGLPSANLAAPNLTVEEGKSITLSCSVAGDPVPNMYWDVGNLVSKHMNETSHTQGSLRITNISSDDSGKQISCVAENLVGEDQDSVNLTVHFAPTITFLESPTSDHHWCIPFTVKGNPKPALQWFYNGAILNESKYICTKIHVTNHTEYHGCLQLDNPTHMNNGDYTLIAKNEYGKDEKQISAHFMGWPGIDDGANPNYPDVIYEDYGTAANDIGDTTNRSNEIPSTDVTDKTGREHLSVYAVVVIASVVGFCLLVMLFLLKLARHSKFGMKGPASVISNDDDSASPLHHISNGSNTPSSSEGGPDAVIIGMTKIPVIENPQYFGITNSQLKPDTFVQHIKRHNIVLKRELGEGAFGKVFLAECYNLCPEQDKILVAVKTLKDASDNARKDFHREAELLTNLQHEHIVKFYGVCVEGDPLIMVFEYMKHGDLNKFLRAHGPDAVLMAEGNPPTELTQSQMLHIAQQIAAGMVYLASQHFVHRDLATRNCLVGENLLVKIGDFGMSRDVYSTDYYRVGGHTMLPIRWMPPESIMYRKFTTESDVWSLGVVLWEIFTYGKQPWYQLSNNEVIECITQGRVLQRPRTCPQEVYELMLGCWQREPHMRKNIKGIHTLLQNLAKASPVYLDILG

MUSK = MUSK (Homo sapiens (Human), UniProt O15146); assay: Promega K192 cell-based NanoBRET kinase occupancy assay
Method: (§1) Similarly, the selectivity of CDD-3031 for NTRK kinases was evaluated in a kinase occupancy assay (Promega K192 cell-based NanoBRET assay) using 192 kinases (Table 4).

SGK1 = SGK1 (Homo sapiens (Human), UniProt O00141); assay: as above
Sequence of SGK1 (O00141 whole entry): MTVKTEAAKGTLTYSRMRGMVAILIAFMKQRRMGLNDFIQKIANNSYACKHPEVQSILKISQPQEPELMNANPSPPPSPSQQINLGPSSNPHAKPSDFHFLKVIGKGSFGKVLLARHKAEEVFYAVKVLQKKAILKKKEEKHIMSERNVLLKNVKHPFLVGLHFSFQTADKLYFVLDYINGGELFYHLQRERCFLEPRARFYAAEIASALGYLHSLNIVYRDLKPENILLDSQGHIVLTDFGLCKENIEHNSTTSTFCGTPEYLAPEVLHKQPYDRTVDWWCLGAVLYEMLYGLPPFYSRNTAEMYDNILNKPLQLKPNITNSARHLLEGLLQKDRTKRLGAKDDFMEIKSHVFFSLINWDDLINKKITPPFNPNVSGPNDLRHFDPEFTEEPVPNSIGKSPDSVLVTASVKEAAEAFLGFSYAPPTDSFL
Method: as §1

FLT3 = FLT3 (Homo sapiens (Human), UniProt P36888); assay: as above
Method: as §1

STK11 = STK11 (Homo sapiens (Human), UniProt Q15831); assay: as above
Sequence of STK11 (Q15831 whole entry): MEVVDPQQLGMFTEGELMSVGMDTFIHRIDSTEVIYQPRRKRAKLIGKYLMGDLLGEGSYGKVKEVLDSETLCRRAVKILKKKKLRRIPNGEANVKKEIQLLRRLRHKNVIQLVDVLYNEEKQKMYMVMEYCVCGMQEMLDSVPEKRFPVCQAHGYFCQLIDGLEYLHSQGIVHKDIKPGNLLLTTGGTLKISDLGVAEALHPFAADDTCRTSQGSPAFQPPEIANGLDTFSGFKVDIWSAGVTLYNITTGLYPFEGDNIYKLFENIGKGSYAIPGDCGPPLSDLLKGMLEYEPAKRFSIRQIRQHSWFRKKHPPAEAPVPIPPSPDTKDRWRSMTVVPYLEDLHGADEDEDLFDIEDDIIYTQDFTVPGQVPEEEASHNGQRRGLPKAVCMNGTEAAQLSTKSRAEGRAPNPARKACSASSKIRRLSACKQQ
Method: as §1

TIE1 = TIE1 (Homo sapiens (Human), UniProt P35590); assay: as above
Method: as §1

MKNK2 = MKNK2 (Homo sapiens (Human), UniProt Q9HBH9); assay: as above
Method: as §1

NTRK1 [4] = molecular target: T1, NTRK1; assay: as above
Method: as §1

NTRK2 [5] = molecular target: T2, NTRK2; assay: as above
Method: as §1

MAP3K12 = MAP3K12 (Homo sapiens (Human), UniProt Q12852); assay: as above
Method: as §1

WEE1 = WEE1 (Homo sapiens (Human), UniProt P30291); assay: as above
Sequence of WEE1 (P30291 whole entry): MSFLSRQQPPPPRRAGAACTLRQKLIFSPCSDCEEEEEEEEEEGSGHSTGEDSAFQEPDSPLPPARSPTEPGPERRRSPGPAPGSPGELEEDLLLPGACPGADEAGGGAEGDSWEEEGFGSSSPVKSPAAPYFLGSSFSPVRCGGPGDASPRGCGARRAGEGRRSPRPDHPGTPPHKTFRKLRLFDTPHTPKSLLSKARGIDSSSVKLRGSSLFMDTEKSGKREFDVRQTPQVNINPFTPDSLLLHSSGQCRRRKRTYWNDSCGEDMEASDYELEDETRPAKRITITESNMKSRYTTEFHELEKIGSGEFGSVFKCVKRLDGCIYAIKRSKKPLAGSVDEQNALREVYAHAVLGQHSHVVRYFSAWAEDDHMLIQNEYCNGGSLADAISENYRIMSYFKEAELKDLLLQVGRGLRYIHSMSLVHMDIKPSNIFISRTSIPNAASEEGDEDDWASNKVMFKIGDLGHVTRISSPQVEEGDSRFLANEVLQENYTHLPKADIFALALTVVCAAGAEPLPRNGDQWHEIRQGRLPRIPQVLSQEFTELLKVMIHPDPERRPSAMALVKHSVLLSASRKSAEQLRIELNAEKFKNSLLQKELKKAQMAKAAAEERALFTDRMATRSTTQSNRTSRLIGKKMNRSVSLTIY
Method: as §1

MAP3K19 = MAP3K19 (Homo sapiens (Human), UniProt Q56UN5); assay: as above
Method: as §1

STK36 = STK36 (Homo sapiens (Human), UniProt Q9NRP7); assay: as above
Sequence of STK36 (Q9NRP7 whole entry): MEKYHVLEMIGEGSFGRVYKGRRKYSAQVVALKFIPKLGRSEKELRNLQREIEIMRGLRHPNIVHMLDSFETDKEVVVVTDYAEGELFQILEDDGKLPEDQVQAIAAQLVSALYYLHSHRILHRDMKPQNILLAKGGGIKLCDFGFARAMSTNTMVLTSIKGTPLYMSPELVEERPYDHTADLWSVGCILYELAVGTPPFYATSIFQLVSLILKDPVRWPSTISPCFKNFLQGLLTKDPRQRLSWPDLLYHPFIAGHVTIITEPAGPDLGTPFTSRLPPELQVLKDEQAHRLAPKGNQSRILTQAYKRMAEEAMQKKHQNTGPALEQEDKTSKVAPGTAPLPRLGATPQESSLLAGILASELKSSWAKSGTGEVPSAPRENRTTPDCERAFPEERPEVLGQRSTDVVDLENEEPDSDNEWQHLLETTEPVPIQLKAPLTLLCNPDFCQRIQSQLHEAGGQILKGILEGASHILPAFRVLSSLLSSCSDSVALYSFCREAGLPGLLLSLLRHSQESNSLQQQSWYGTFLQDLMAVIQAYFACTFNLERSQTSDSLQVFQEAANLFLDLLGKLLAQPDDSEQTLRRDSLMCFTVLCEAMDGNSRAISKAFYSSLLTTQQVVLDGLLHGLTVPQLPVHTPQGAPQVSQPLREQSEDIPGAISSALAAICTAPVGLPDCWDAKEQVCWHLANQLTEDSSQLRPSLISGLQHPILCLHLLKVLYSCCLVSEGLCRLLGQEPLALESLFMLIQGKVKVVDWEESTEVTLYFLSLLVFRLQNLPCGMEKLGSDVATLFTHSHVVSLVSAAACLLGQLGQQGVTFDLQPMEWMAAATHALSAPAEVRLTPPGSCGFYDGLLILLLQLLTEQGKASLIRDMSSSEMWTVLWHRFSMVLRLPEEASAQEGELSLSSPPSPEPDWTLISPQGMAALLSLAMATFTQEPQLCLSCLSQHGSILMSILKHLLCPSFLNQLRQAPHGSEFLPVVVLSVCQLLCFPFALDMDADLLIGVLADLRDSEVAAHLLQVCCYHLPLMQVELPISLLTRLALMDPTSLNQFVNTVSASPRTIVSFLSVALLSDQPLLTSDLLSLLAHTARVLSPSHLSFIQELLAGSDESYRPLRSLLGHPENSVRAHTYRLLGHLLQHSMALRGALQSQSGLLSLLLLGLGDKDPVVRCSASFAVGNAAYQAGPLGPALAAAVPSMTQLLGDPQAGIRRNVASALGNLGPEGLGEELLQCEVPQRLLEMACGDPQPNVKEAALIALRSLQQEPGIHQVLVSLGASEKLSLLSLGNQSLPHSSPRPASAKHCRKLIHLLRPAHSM
Method: as §1

CLK1 = CLK1 (Homo sapiens (Human), UniProt P49759); assay: as above
Sequence of CLK1 (P49759 whole entry): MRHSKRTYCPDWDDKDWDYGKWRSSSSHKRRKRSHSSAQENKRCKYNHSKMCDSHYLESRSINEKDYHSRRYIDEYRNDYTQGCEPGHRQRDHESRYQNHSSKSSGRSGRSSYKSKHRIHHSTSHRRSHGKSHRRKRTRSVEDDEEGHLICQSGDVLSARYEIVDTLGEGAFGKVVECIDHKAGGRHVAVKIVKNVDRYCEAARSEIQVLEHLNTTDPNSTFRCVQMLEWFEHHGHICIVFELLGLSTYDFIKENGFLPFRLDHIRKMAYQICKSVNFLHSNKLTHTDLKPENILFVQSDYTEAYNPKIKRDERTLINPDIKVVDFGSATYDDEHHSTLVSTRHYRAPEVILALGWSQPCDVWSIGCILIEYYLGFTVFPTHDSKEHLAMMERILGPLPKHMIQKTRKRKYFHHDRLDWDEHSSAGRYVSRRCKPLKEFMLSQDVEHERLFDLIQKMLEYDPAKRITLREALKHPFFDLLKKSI
Method: as §1

JAK2 (V617F) = JAK2 (V617F) (Homo sapiens (Human), UniProt O60674, V617F); assay: as above
Method: as §1

AURKB = AURKB (Homo sapiens (Human), UniProt Q96GD4); assay: as above
Method: as §1

CDKL1 = CDKL1 (Homo sapiens (Human), UniProt Q00532); assay: as above
Method: as §1

ITK = ITK (Homo sapiens (Human), UniProt Q08881); assay: as above
Method: as §1

PKMYT1 = PKMYT1 (Homo sapiens (Human), UniProt Q99640); assay: as above
Method: as §1

[6] = Brain uptake in mice 24 hours post-administration; assay type: in vivo, mouse
[7] = Endometriosis mouse model, liver and kidney toxicity (organ weight, ALT, AST); assay type: in vivo; parameters: ALT (Mean ± SD) / AST (Mean ± SD): unit not given here
Method: In one aspect, the present disclosure provides exemplary data relating to the administration of NTRK2 inhibitors in a mouse model of endometriosis (FIG. 14). In certain embodiments, the recipient mouse is administered the NTRK2 inhibitor and/or controls on day 14 after intraperitoneal injection of endometrium of the donor mouse. In certain embodiments, the recipient mouse is sacrificed and quantitatively assessed on day 28.

[8] = plasma, 24 h after 50 mg/kg CDD-3031 by oral gavage, individual mice
[9] = i.p. dose of 10 mg/kg/day for 14 days

CN(Cc1ccn2ncc(C(N)=O)c2c1)C(=O)Nc1ccc(OC(F)(F)F)cc1 [CDD-3031, 5-((1-methyl-3-(4-(trifluoromethoxy)phenyl)ureido)methyl)pyrazolo[1,5-a]pyridine-3-carboxamide]
potential liver and other tissue toxicity ([1]; high dose, 50 mg/kg): minimal effects
ALT [1, 8]: 35.89 IU/L and 24.49 IU/L and 52.86 IU/L and 48.18 IU/L
AST [1, 8]: 86.81 IU/L and 64.53 IU/L and 68.33 IU/L and 72.84 IU/L
IC50 (NTRK1 [2]): 153 nM
IC50 (NTRK2 [3]): 11.9 nM
receptor occupancy at 1 µM (MUSK; average, read-out: MUSK kinase occupancy, Average (%)): 19.8%
receptor occupancy at 1 µM (MUSK; replicate 1, read-out: MUSK kinase occupancy, Replicate 1 (%)): 17.5%
receptor occupancy at 1 µM (MUSK; replicate 2, read-out: MUSK kinase occupancy, Replicate 2 (%)): 22.2%
receptor occupancy at 1 µM (SGK1; average, read-out: SGK1 kinase occupancy, Average (%)): 4.31%
receptor occupancy at 1 µM (SGK1; replicate 1, read-out: SGK1 kinase occupancy, Replicate 1 (%)): 1.93%
receptor occupancy at 1 µM (SGK1; replicate 2, read-out: SGK1 kinase occupancy, Replicate 2 (%)): 6.69%
receptor occupancy at 1 µM (FLT3; average, read-out: FLT3 kinase occupancy, Average (%)): 7.12%
receptor occupancy at 1 µM (FLT3; replicate 1, read-out: FLT3 kinase occupancy, Replicate 1 (%)): -10.3%
receptor occupancy at 1 µM (FLT3; replicate 2, read-out: FLT3 kinase occupancy, Replicate 2 (%)): 24.6%
receptor occupancy at 1 µM (STK11; average, read-out: STK11 kinase occupancy, Average (%)): 5.85%
receptor occupancy at 1 µM (STK11; replicate 1, read-out: STK11 kinase occupancy, Replicate 1 (%)): 6.96%
receptor occupancy at 1 µM (STK11; replicate 2, read-out: STK11 kinase occupancy, Replicate 2 (%)): 4.74%
receptor occupancy at 1 µM (TIE1; average, read-out: TIE1 kinase occupancy, Average (%)): 14%
receptor occupancy at 1 µM (TIE1; replicate 1, read-out: TIE1 kinase occupancy, Replicate 1 (%)): 8.54%
receptor occupancy at 1 µM (TIE1; replicate 2, read-out: TIE1 kinase occupancy, Replicate 2 (%)): 19.5%
receptor occupancy at 1 µM (MKNK2; average, read-out: MKNK2 kinase occupancy, Average (%)): 4.61%
receptor occupancy at 1 µM (MKNK2; replicate 1, read-out: MKNK2 kinase occupancy, Replicate 1 (%)): 7.96%
receptor occupancy at 1 µM (MKNK2; replicate 2, read-out: MKNK2 kinase occupancy, Replicate 2 (%)): 1.26%
receptor occupancy at 1 µM (NTRK1 [4]; average, read-out: NTRK1 kinase occupancy, Average (%)): 73.2%
receptor occupancy at 1 µM (NTRK1 [4]; replicate 1, read-out: NTRK1 kinase occupancy, Replicate 1 (%)): 71.4%
receptor occupancy at 1 µM (NTRK1 [4]; replicate 2, read-out: NTRK1 kinase occupancy, Replicate 2 (%)): 75%
receptor occupancy at 1 µM (NTRK2 [5]; average, read-out: NTRK2 kinase occupancy, Average (%)): 92.9%
receptor occupancy at 1 µM (NTRK2 [5]; replicate 1, read-out: NTRK2 kinase occupancy, Replicate 1 (%)): 94.6%
receptor occupancy at 1 µM (NTRK2 [5]; replicate 2, read-out: NTRK2 kinase occupancy, Replicate 2 (%)): 91.2%
receptor occupancy at 1 µM (MAP3K12; average, read-out: MAP3K12 kinase occupancy, Average (%)): 7.58%
receptor occupancy at 1 µM (MAP3K12; replicate 1, read-out: MAP3K12 kinase occupancy, Replicate 1 (%)): 21.2%
receptor occupancy at 1 µM (MAP3K12; replicate 2, read-out: MAP3K12 kinase occupancy, Replicate 2 (%)): -6.05%
receptor occupancy at 1 µM (WEE1; average, read-out: WEE1 kinase occupancy, Average (%)): 4.94%
receptor occupancy at 1 µM (WEE1; replicate 1, read-out: WEE1 kinase occupancy, Replicate 1 (%)): 9.23%
receptor occupancy at 1 µM (WEE1; replicate 2, read-out: WEE1 kinase occupancy, Replicate 2 (%)): 0.65%
receptor occupancy at 1 µM (MAP3K19; average, read-out: MAP3K19 kinase occupancy, Average (%)): 13.3%
receptor occupancy at 1 µM (MAP3K19; replicate 1, read-out: MAP3K19 kinase occupancy, Replicate 1 (%)): 53.3%
receptor occupancy at 1 µM (MAP3K19; replicate 2, read-out: MAP3K19 kinase occupancy, Replicate 2 (%)): -26.6%
receptor occupancy at 1 µM (STK36; average, read-out: STK36 kinase occupancy, Average (%)): 4.82%
receptor occupancy at 1 µM (STK36; replicate 1, read-out: STK36 kinase occupancy, Replicate 1 (%)): -3.75%
receptor occupancy at 1 µM (STK36; replicate 2, read-out: STK36 kinase occupancy, Replicate 2 (%)): 13.4%
receptor occupancy at 1 µM (CLK1; average, read-out: CLK1 kinase occupancy, Average (%)): 4.92%
receptor occupancy at 1 µM (CLK1; replicate 1, read-out: CLK1 kinase occupancy, Replicate 1 (%)): 3.65%
receptor occupancy at 1 µM (CLK1; replicate 2, read-out: CLK1 kinase occupancy, Replicate 2 (%)): 6.2%
receptor occupancy at 1 µM (JAK2 (V617F); average, read-out: JAK2 (V617F) kinase occupancy, Average (%)): 9.92%
receptor occupancy at 1 µM (JAK2 (V617F); replicate 1, read-out: JAK2 (V617F) kinase occupancy, Replicate 1 (%)): 31.4%
receptor occupancy at 1 µM (JAK2 (V617F); replicate 2, read-out: JAK2 (V617F) kinase occupancy, Replicate 2 (%)): -11.6%
receptor occupancy at 1 µM (AURKB; average, read-out: AURKB kinase occupancy, Average (%)): 7.37%
receptor occupancy at 1 µM (AURKB; replicate 1, read-out: AURKB kinase occupancy, Replicate 1 (%)): 3.71%
receptor occupancy at 1 µM (AURKB; replicate 2, read-out: AURKB kinase occupancy, Replicate 2 (%)): 11%
receptor occupancy at 1 µM (CDKL1; average, read-out: CDKL1 kinase occupancy, Average (%)): 8.23%
receptor occupancy at 1 µM (CDKL1; replicate 1, read-out: CDKL1 kinase occupancy, Replicate 1 (%)): 2.8%
receptor occupancy at 1 µM (CDKL1; replicate 2, read-out: CDKL1 kinase occupancy, Replicate 2 (%)): 13.7%
receptor occupancy at 1 µM (ITK; average, read-out: ITK kinase occupancy, Average (%)): 5.61%
receptor occupancy at 1 µM (ITK; replicate 1, read-out: ITK kinase occupancy, Replicate 1 (%)): 14.2%
receptor occupancy at 1 µM (ITK; replicate 2, read-out: ITK kinase occupancy, Replicate 2 (%)): -2.94%
receptor occupancy at 1 µM (PKMYT1; average, read-out: PKMYT1 kinase occupancy, Average (%)): 4.17%
receptor occupancy at 1 µM (PKMYT1; replicate 1, read-out: PKMYT1 kinase occupancy, Replicate 1 (%)): 5.47%
receptor occupancy at 1 µM (PKMYT1; replicate 2, read-out: PKMYT1 kinase occupancy, Replicate 2 (%)): 2.88%
brain uptake relative to controls ([6]; brain and plasma 24 hours post-administration): low brain penetration; also recorded: relatively low brain uptake compared to chlorpromazine (positive control), but a high uptake as compared to hydroxyzine (negative control)
concentration at 24 h ([6]; mouse, brain, 24 h, read-out: Brain Concentration at 24 h (ng/mg)): 350 ng/g
effect on liver and/or kidney weight and/or serum elevation of ALT and AST ([7]; 10 mg/kg, mice with endometriotic lesions): little to no effect
ALT (Mean ± SD) [7, 9]: 16.6 ± 2.6
AST (Mean ± SD) [7, 9]: 46.9 ± 23.4
impact on liver and kidney weights ([7]; mice treated for 14 days): no significant impact
